Consider 23 compounds from the NIST ThermoML archive (doi:10.1021/je0604277).

What is called viscosity is the internal friction of a fluid under shear. Usually surface tension liquid-gas stands for the force per length acting along the surface.

Numbers after ± are expanded uncertainties.

The conditions of data set [1]: for viscosity: 101.33 kPa, Liquid, rotational viscometer; for surface tension liquid-gas: Pendant drop shape.
The conditions of data set [2]: 298.15 K; 101 kPa; Liquid mixture 1; rotated drop method.

Take `CCCCn1cc[n+](C)c1.F[P-](F)(F)(F)(F)F` [1-butyl-3-methylimidazolium hexafluorophosphate]: the viscosity was 400.2 ± 16 mPa·s in data set [1] (288.15 K); 294 ± 12 mPa·s in data set [1] (293.15 K); 245.8 ± 10 mPa·s in data set [1] (296.15 K); 217.9 ± 8.6 mPa·s in data set [1] (298.15 K); 182.7 ± 7.4 mPa·s in data set [1] (301.15 K); 162.9 ± 6.5 mPa·s in data set [1] (303.15 K). The viscosity in data set [1] (305.15 K) was found to be 145.1 ± 5.6 mPa·s; in data set [1] (308.15 K), 123.2 ± 4.8 mPa·s; in data set [1] (311.15 K), 104 ± 4.1 mPa·s; in data set [1] (313.15 K), 95 ± 3.6 mPa·s. The surface tension liquid-gas in data set [1] (298.15 K) was determined as 53.1 ± 2.5 mN/m.

For the compound `CCCCn1cc[n+](C)c1.F[P-](F)(F)(F)(F)F` [1-butyl-3-methylimidazolium hexafluorophosphate] + C1CCCCC1, in data set [2], the interfacial tension was determined as 13.15 ± 0.26 mN/m.

With `CCCCn1cc[n+](C)c1.F[P-](F)(F)(F)(F)F` [1-butyl-3-methylimidazolium hexafluorophosphate] + C=CCCCC, the interfacial tension in data set [2] is 10.42 ± 0.21 mN/m.

On to `CCCCn1cc[n+](C)c1.F[P-](F)(F)(F)(F)F` [1-butyl-3-methylimidazolium hexafluorophosphate] + CCC(=O)O, for which, in data set [2], the interfacial tension was determined as 3.292 ± 0.066 mN/m.

Regarding `CCCCn1cc[n+](C)c1.F[P-](F)(F)(F)(F)F` [1-butyl-3-methylimidazolium hexafluorophosphate] + CCCCC, in data set [2], the interfacial tension came out at 13.65 ± 0.27 mN/m.

Regarding `CCCCn1cc[n+](C)c1.F[P-](F)(F)(F)(F)F` [1-butyl-3-methylimidazolium hexafluorophosphate] + CCCCCC, the interfacial tension in data set [2] is listed as 13.39 ± 0.27 mN/m.

As for `CCCCn1cc[n+](C)c1.F[P-](F)(F)(F)(F)F` [1-butyl-3-methylimidazolium hexafluorophosphate] + CCCCCCCC, the interfacial tension in data set [2] was found to be 14.29 ± 0.28 mN/m.

`CCCCn1cc[n+](C)c1.F[P-](F)(F)(F)(F)F` [1-butyl-3-methylimidazolium hexafluorophosphate] + CCCCCCCCCCO: in data set [2], the interfacial tension was found to be 7.516 ± 0.15 mN/m.

For the compound `CCCCn1cc[n+](C)c1.F[P-](F)(F)(F)(F)F` [1-butyl-3-methylimidazolium hexafluorophosphate] + CCCCCCCCO, the interfacial tension in data set [2] is 7.385 ± 0.15 mN/m.

As for `CCCCn1cc[n+](C)c1.F[P-](F)(F)(F)(F)F` [1-butyl-3-methylimidazolium hexafluorophosphate] + CCCCCCCO, in data set [2], the interfacial tension amounted to 6.41 ± 0.13 mN/m.

In the case of `CCCCn1cc[n+](C)c1.F[P-](F)(F)(F)(F)F` [1-butyl-3-methylimidazolium hexafluorophosphate] + CCCCCCO, the interfacial tension in data set [2] amounted to 5.556 ± 0.11 mN/m.

For the compound `CCCCn1cc[n+](C)c1.F[P-](F)(F)(F)(F)F` [1-butyl-3-methylimidazolium hexafluorophosphate] + CCCCCO, in data set [2], the interfacial tension was 5.325 ± 0.11 mN/m.

Take `CCCCn1cc[n+](C)c1.F[P-](F)(F)(F)(F)F` [1-butyl-3-methylimidazolium hexafluorophosphate] + CCCCO: the interfacial tension in data set [2] is 4.706 ± 0.094 mN/m.

Consider `CCCCn1cc[n+](C)c1.F[P-](F)(F)(F)(F)F` [1-butyl-3-methylimidazolium hexafluorophosphate] + CCCCOC(C)=O, for which the interfacial tension in data set [2] amounted to 0.4344 ± 0.0087 mN/m.

With `CCCCn1cc[n+](C)c1.F[P-](F)(F)(F)(F)F` [1-butyl-3-methylimidazolium hexafluorophosphate] + CCO, the interfacial tension in data set [2] turned out to be 1.222 ± 0.024 mN/m.

As for `CCCCn1cc[n+](C)c1.F[P-](F)(F)(F)(F)F` [1-butyl-3-methylimidazolium hexafluorophosphate] + CCOC(C)=O, the interfacial tension in data set [2] was determined as 11.69 ± 0.23 mN/m.

For `CCCCn1cc[n+](C)c1.F[P-](F)(F)(F)(F)F` [1-butyl-3-methylimidazolium hexafluorophosphate] + CCc1ccccc1, the interfacial tension in data set [2] is 3.995 ± 0.08 mN/m.

With `CCCCn1cc[n+](C)c1.F[P-](F)(F)(F)(F)F` [1-butyl-3-methylimidazolium hexafluorophosphate] + Cc1ccccc1, the interfacial tension in data set [2] turned out to be 3 ± 0.06 mN/m.

With `CCCCn1cc[n+](C)c1.F[P-](F)(F)(F)(F)F` [1-butyl-3-methylimidazolium hexafluorophosphate] + O, the interfacial tension in data set [2] amounted to 10.06 ± 0.2 mN/m.

In the case of `CCCCn1cc[n+](C)c1.F[P-](F)(F)(F)(F)F` [1-butyl-3-methylimidazolium hexafluorophosphate] + c1ccccc1, the interfacial tension in data set [2] is on record as 2.209 ± 0.044 mN/m.

With `CC(C)=Cn1cc[n+](C)c1.F[B-](F)(F)F` [1-isobutenyl-3-methylimidazolium tetrafluoroborate], the viscosity in data set [1] (288.15 K) is 214.2 ± 8.2 mPa·s; in data set [1] (293.15 K), 158.7 ± 6.5 mPa·s; in data set [1] (296.15 K) it was 133.4 ± 5.4 mPa·s; in data set [1] (298.15 K), 118.5 ± 4.6 mPa·s; in data set [1] (301.15 K), 100.4 ± 4 mPa·s; in data set [1] (303.15 K) it was 88.9 ± 3.5 mPa·s. In addition, the viscosity in data set [1] (305.15 K) is on record as 79.8 ± 3.1 mPa·s; in data set [1] (308.15 K), 68 ± 2.6 mPa·s; in data set [1] (311.15 K), 58.6 ± 2.2 mPa·s; in data set [1] (313.15 K), 53.4 ± 2 mPa·s. Moreover, the surface tension liquid-gas in data set [1] (298.15 K) was determined as 51.8 ± 2.2 mN/m.

As for `CCCCCCCCCCCCO` [dodecan-1-ol] + CCCCn1cc[n+](C)c1.F[P-](F)(F)(F)(F)F, in data set [2], the interfacial tension is 8.788 ± 0.17 mN/m.

For `C=Cc1ccccc1` [styrene] + CCCCn1cc[n+](C)c1.F[P-](F)(F)(F)(F)F, in data set [2], the interfacial tension is reported as 1.793 ± 0.036 mN/m.
